The values that follow come from US4963570A, “1-(acetylaminophenyl)-2-aminopropanone derivatives and pharmaceutical compositions thereof” (Laboratoire L. Lafon, priority 1983, dated 1990).

“Also recorded” adds a separate entry of the source. Where a name gives a salt, the structure may show the parent alone.

Data set [1] concerns rats. Nature of the data set: overall behavior and reactivities in rats. The class given is in vivo, rat. As to conditions: i.p., dose not stated. The protocol:
(§1) Groups of three animals are observed before and then 0.25 hour, 0.50 hour, 1 hour, 2 hours, 3 hours and 24 hours after the administration of CRL 41 224.

Data set [2] relates to mice. Nature of the data set: action on the behavioral despair. The class given is in vivo, mouse. Particulars: i.p., dose not stated. The source says:
Half an hour after they have received CRL 41 224, groups of 6 mice are placed in a beaker filled with water to a height of 6 cm. The total period of immobility between the 2nd and 6th minutes following immersion is noted.

Data set [3] concerns mice. Nature of the data set: interaction with reserpine. Format: in vivo, mouse. Particulars: i.p.; dose not stated. The procedure: Four hours after the intraperitoneal injection of 2.5 mg/kg of reserpine, groups of 6 mice receive CRL 41 224.
Data set [4] deals with rats. Nature of the data set: interaction with amphetamine. The class given is in vivo, rat. As to conditions: rats, i.p.; dose not stated. The procedure: Amphetamine (2 mg/kg) is injected intraperitoneally into groups of 6 rats 30 minutes after the administration of CRL 41 224.
Data set [5] relates to rats. Nature of the data set: interaction with apomorphine in rats. The class given is in vivo, rat. As to conditions: i.p., dose not stated. The protocol: CRL 41 224 is administered to groups of 6 rats 0.5 hour before the subcutaneous injection of 0.5 mg/kg of apomorphine.
In data set [6] the test system is mice. Nature of the data set: action on the spontaneous motility (actimeter). As to conditions: mice, i.p.; dose not stated. Format: in vivo, mouse. The procedure: 0.5 hour after they have received CRL 41 224, the mice (6 per dose, 12 control animals) are placed in an actimeter, where their motility is recorded for 30 minutes.
In data set [7] the test system is mice. Nature of the data set: interaction with apomorphine in mice. Format: in vivo, mouse. As to conditions: i.p.; dose not stated. The procedure:
Groups of 6 mice receive CRL 41 224 0.5 hour before the subcutaneous injection of 1 or 16 mg/kg of apomorphine.

The test system of data set [8] is peripheral α-adrenergic stimulation. Nature of the data set: signs of peripheral adrenergic stimulation. The class given is in vivo, mouse; rat. As to conditions: i.p.; dose not stated. The procedure:
as §1

In data set [9] the test system is CNS. Nature of the data set: overall neuropsychopharmacological (CNS) profile. The class given is in vivo, mouse; rat. As to conditions: i.p., mice and rats, dose not stated. The protocol: The neuropsychopharmacological study of CRL 41 219 was carried out as indicated above for CRL 41 224.
The neuropsychopharmacological study of CRL 41 220 was carried out in accordance with the procedures given above for CRL 41 224.

In data set [10] the test system is mice. Nature of the data set: four plate test, traction and electric shock. Particulars: i.p., dose not stated. Format: in vivo, mouse. The protocol:
The test is performed on groups of 10 mice 30 minutes after the administration of CRL 41 224.

Data set [11] deals with rats. Nature of the data set: action on stereotypies in rats (α-methyltyrosine, haloperidol, reserpine). Particulars: i.p.
Data set [12] has as its system mice. Nature of the data set: interaction with barbital. The class given is in vivo, mouse. Particulars: i.p.; dose not stated. The procedure: Half an hour after the administration of CRL 41 224, groups of 10 mice receive an intraperitoneal injection of barbital (220 mg/kg).
Data set [13] has as its system mice. Nature of the data set: overall behavior and reactivities in mice. Format: in vivo, mouse. Particulars: mice, i.p.; dose not stated. The procedure: as §1
Data set [14] relates to mice. Nature of the data set: motility reduced by hypoxic aggression. Format: in vivo, mouse. As to conditions: i.p., dose not stated. The procedure: Half an hour after they have received CRL 41 224, the mice (10 per dose, 20 control animals) are subjected to acute hypobaric anoxia [pressure reduction of 600 mm Hg (i.e. about 8×10^4 Pa) in 90 seconds; release of vacuum in 45 seconds] and are then placed in an actimeter, where their motility is recorded for 10 minutes.

Data set [15] relates to mice. Nature of the data set: interaction with oxotremorine. Format: in vivo, mouse. Particulars: i.p.; dose not stated. The procedure: CRL 41 224 is administered to groups of 6 mice 0.5 hour before the intraperitoneal injection of 0.5 mg/kg of oxotremorine.
The test system of data set [16] is mice. Nature of the data set: motility reduced by habituation to the enclosure. Format: in vivo, mouse. Particulars: i.p., dose not stated. The procedure:
After they have stayed in the actimeters for 18 hours, the mice (6 per dose, 12 control animals) receive CRL 41 224. They are immediately returned to their respective enclosures and, half an hour later, their motility is recorded for 30 minutes.

The subject of data set [17] is male mice. Nature of the data set: acute toxicity, intraperitoneal (lethal doses). The class given is in vivo, mouse. As to conditions: i.p. The procedure: By intraperitoneal administration to male mice, the LD-30 (lethal dose for 30% of the animals tested) is of the order of 128 mg/kg and the LD-50 is of the order of about 200 mg/kg.
Data set [18] relates to LEWIS' carcinoma. Nature of the data set: LEWIS' carcinoma in mice. As to conditions: mice. Format: in vivo, mouse. The procedure:
a. animals: consanguineous female mice (C57 BL6), b. infecting cells: 10^5 cells injected subcutaneously into the back of the animals, c. monitoring of the tumor growth by measurement of the tumor twice a week, d. evaluation of the pulmonary metastases after fixation of the lungs of the dead animals in BOUIN's fixative.
Using the same procedures, the association of CRL 41 220 with 150 mg/kg of cyclophosphamide gives the results collated in Table II below.

The subject of data set [19] is dogs. Nature of the data set: cardiovascular action in anesthetized dogs. The class given is in vivo, dog. Particulars: control dogs, isoprenaline alone. The protocol:
Four dogs (average weight: 13.8 kg), anesthetized with nembutal, receive CRL 41 220 by intraduodenal administration at successive doses of 0.1 mg/kg, 0.5 mg/kg, 1 mg/kg, 2.5 mg/kg, 5 mg/kg and 10 mg/kg. The blood pressure, the heart beat, the flow rate through the femoral artery, the flow rate through the vertebral artery and the rectal and/or skin temperature are measured and the coloration of the skin and the bile (collected by catheterization of the bile duct after ligature of the cystic duct) is observed.

Take `CC(=O)Nc1ccc(C(=O)C(C)NC(C)C)cc1Cl` (stereo not drawn) [CRL 41 192, 1-(4-acetylamino-3-chlorophenyl)-2-isopropylaminopropanone hydrochloride]: the “stereotype movements in rats” value in data set [1] was “stereotype movements in rats”. In [2], the “period of immobility or "despair"” value was “a reduction in the immobility”. Moreover, in data set [3], the “hypothermia induced by reserpine” value is “antagonism of the hypothermia induced by apomorphine, oxotremorine or reserpine” and the “ptosis induced by reserpine” value is listed as “antagonism of the ptosis induced by reserpine”. The “stereotypies induced by amphetamine” value in [4] is on record as “potentiation of the stereotypies induced by apomorphine or amphetamine”. Moreover, the “stereotypies induced by apomorphine” value in data set [5] is on record as “potentiation of the stereotypies induced by apomorphine”. The “spontaneous motility / motor activity” value in data set [6] is “an increase in the spontaneous motility in mice”. Besides, in data set [7], the “hypothermia induced by apomorphine” value is “antagonism of the hypothermia induced by apomorphine”. Moreover, in data set [8], the exophthalmos result is reported as “absent”; the mydriasis entry is listed as “mydriasis”; the “peripheral adrenergic stimulation, overall” value is given as “effects which may reflect peripheral adrenergic stimulation”; the salivation entry is reported as “absent”. Also, the “overall action on the CNS” value in data set [9] (hydrochloride) is listed as “stimulant effects; also recorded: antidepressant effects”. Also, the “convulsant effects of electric shock” value in [10] is listed as “anticonvulsant effects”. In [11], the “suppression of induced stereotype movements by prior injection of alpha-methyltyrosine” value is on record as “not suppressed”. The “sleep induced by barbital” value in data set [12] is reported as “antagonism of the sleep induced by barbital”. Moreover, the excitation in mice entry in data set [13] is reported as “excitation with hyperreactivity in mice”. The “motor recovery after hypoxic aggression” value in data set [14] is given as “an improvement in the motor recovery in mice after acute hypoxia”. Moreover, in data set [15], the “hypothermia induced by oxotremorine” value is “antagonism of the hypothermia induced by apomorphine, oxotremorine” and the “trembling caused by oxotremorine” value is “antagonism of the trembling caused by oxotremorine”. In [16], the “motor activity after habituation to the enclosure” value (from here on “motor activity after habituation”) is on record as “a resumption in the motor activity of mice accustomed to their enclosure”.

For the compound `CC(=O)Nc1ccc(C(=O)C(C)N(C)C)cc1` (stereo not drawn) [CRL 41 232], in data set [1], the “stereotype movements in rats” value is “presence of stereotype movements in mice and rats”. In [2], the “period of immobility or "despair"” value was “reduction in the period of immobility”. Further, in data set [3], the “hypothermia induced by reserpine” value is on record as “antagonism of the hypothermia induced by apomorphine, reserpine” and the “ptosis induced by reserpine” value is listed as “antagonism of the ptosis induced by reserpine”. Also, the “stereotypies induced by amphetamine” value in data set [4] was “potentiation of the stereotypies induced by apomorphine and amphetamine”. Further, the “stereotypies induced by apomorphine” value in data set [5] was “potentiation of the stereotypies induced by apomorphine”. Moreover, the “spontaneous motility / motor activity” value in [6] is reported as “increase in the motor activity”. Moreover, the “hypothermia induced by apomorphine” value in [7] is reported as “antagonism of the hypothermia induced by apomorphine”. Moreover, in data set [8], the exophthalmos result is “exophthalmos”; the mydriasis entry was “mydriasis”; the “peripheral adrenergic stimulation, overall” value is given as “peripheral α-adrenergic stimulation”. Besides, the “overall action on the CNS” value in data set [9] was “behaves overall as a stimulant and antidepressant for the CNS”. In [17], the “LD-0 (maximum non-lethal dose)” value was “greater than 128 mg/kg” and the LD-30 entry is listed as “about 250 mg/kg”. In data set [13], the excitation in mice entry is reported as “excitation in mice” and the “stereotype movements in mice” value was “presence of stereotype movements in mice”. In data set [14], the “motor recovery after hypoxic aggression” value is “improvement in the motor recovery”. Also, the “hypothermia induced by oxotremorine” value in [15] is “antagonism of the hypothermia induced by apomorphine, reserpine and oxotremorine”. Moreover, the “motor activity after habituation” value in data set [16] was “distinct resumption in the motor activity of mice accustomed to their enclosure”.

Regarding `CC(=O)Nc1ccc(C(=O)C(C)N2CCOCC2)cc1` (stereo not drawn) [CRL 41 236], the “period of immobility or "despair"” value in data set [2] is reported as “reduction in the immobility”. For the same compound, in [3], the “hypothermia induced by reserpine” value was “antagonism of the hypothermia induced by apomorphine, reserpine” and the “ptosis induced by reserpine” value was “antagonism of the ptosis induced by reserpine”. In [4], the “stereotypies induced by amphetamine” value is “potentiation of the stereotypies induced by apomorphine and amphetamine”. Besides, in data set [5], the “stereotypies induced by apomorphine” value is given as “potentiation of the stereotypies induced by apomorphine”. For the same compound, the “spontaneous motility / motor activity” value in [6] was “increase in the spontaneous motility”. Besides, the “hypothermia induced by apomorphine” value in data set [7] was “antagonism of the hypothermia induced by apomorphine”. Moreover, in data set [8], the mydriasis entry is “mydriasis” and the “peripheral adrenergic stimulation, overall” value was “peripheral α-adrenergic stimulation”. Besides, in [9], the “overall action on the CNS” value is “behaves as an antidepressant having stimulant and arousing properties”. Moreover, in data set [10], the “lethal effects of electric shock” value is given as “seems to aggravate the lethal effects of electric shock”. In data set [10] (mice), the “number of punished passes in the 4 plate test” value was “moderate increase in the number of punished passes”. Besides, the “sleep induced by barbital” value in data set [12] was “antagonism of the sleep induced by barbital”. Further, in data set [17], the “LD-0 (maximum non-lethal dose)” value was “greater than 256 mg/kg” and the LD-30 result is reported as “about 500 mg/kg”. In data set [13], the excitation in mice result is listed as “excitation with hyperreactivity” and the “stereotype movements in mice” value is “without the presence of stereotype movements”. Also, the “motor recovery after hypoxic aggression” value in data set [14] was “improvement in the motor recovery after hypoxic aggression”. In addition, the “hypothermia induced by oxotremorine” value in [15] was “antagonism of the hypothermia induced by apomorphine, reserpine and oxotremorine”. Further, the “motor activity after habituation” value in data set [16] is “increase in the spontaneous motility and in the motor activity after habituation to the enclosure”.

On to `O=P1(N(CCCl)CCCl)NCCCO1` (stereo not drawn) [cyclophosphamide, reference compound], for which, in data set [18] (100 mg/kg), the development of tumors result is given as “slightly slows down the development of tumors”, the “number of pulmonary metastases” value is “reduces the number of pulmonary metastases” and the “survival of the animals treated” value is “without however improving the survival of the animals treated”. In addition, in data set [18] (150 mg/kg), the “effect on process initiated by the administration of infecting cells” value was “distinctly opposes the process initiated by the administration of infecting cells” and the survival is 2 out of 6.

For `CC(C)NCC(O)c1ccc(O)c(O)c1` (stereo not drawn) [isoprenaline, reference compound], the “heart beat with 10 μg/kg of isoprenaline, control animals” value in data set [19] is on record as 280 beats/minute.
